# Legend:
# Staphylococcus aureus [1] = experiment: Antibacterial activity against linezolid-resistant Staphylococcus aureus assessed as inhibition of bacterial growth incubated for 16 to 20 hrs by CLSI based broth liquid microdilution method; assay type: functional; settings: time 16-20 hrs
# Staphylococcus aureus [2] = experiment: Antibacterial activity against methicillin-sensitive Staphylococcus aureus assessed as inhibition of bacterial growth incubated for 16 to 20 hrs by CLSI based broth liquid microdilution method; assay type: functional; settings: time 16-20 hrs
# Enterococcus faecalis = experiment: Antibacterial activity against linezolid-resistant Enterococcus faecalis assessed as inhibition of bacterial growth incubated for 16 to 20 hrs by CLSI based broth liquid microdilution method; assay type: functional; settings: time 16-20 hrs
# Staphylococcus aureus [3] = experiment: Antibacterial activity against Staphylococcus aureus ATCC29213 assessed as inhibition of bacterial growth incubated for 16 to 20 hrs by CLSI based broth liquid microdilution method; assay type: functional; settings: time 16-20 hrs
# Staphylococcus aureus [4] = experiment: Antibacterial activity against methicillin-resistant Staphylococcus aureus assessed as inhibition of bacterial growth incubated for 16 to 20 hrs by CLSI based broth liquid microdilution method; assay type: functional; settings: time 16-20 hrs
# [5] = Efflux ratio of apparent permeability across […] side in human Caco-2 cells; assay type: ADME, cell-based
# [6] = Bioavailability in Sprague-Dawley rat at 10 mg/kg, IG measured upto 24 hrs by LC-MS analysis; assay type: ADME, organism-based; settings: in vivo, po
# [7] = AUC (0 to t) in Sprague-Dawley rat at 1 mg/kg, iv measured upto 24 hrs by LC-MS analysis; assay type: ADME, organism-based; settings: in vivo
# [8] = AUC (0 to t) in Sprague-Dawley rat at 10 mg/kg, IG measured upto 24 hrs by LC-MS analysis; assay type: ADME, organism-based; settings: in vivo, po
# [9] = Aqueous solubility of compound at pH 7.4 by LC-MS/MS analysis; assay type: physicochemical; settings: buffer
# [10] = Aqueous solubility of compound at pH 2 by LC-MS/MS analysis; assay type: physicochemical; settings: buffer
# [11] = Clearance in Sprague-Dawley rat at 1 mg/kg, iv measured upto 24 hrs by LC-MS analysis; assay type: ADME, organism-based; settings: in vivo
# [12] = Solubility of compound at pH 7.4; assay type: physicochemical; settings: buffer
# [13] = Elimination half life in Sprague-Dawley rat at 1 mg/kg, iv measured upto 24 hrs by LC-MS analysis; assay type: ADME, organism-based; settings: in vivo, read-out: beta t1/2 (converted)
# [14] = Apparent volume of distribution in Sprague-Dawley rat at 1 mg/kg, iv measured upto 24 hrs by LC-MS analysis; assay type: ADME, organism-based; settings: in vivo, read-out: Vz
# [15] = Apparent permeability across apical to basolateral side in human Caco-2 cells; assay type: ADME, cell-based
# [16] = Tmax in Sprague-Dawley rat at 10 mg/kg, IG measured upto 24 hrs by LC-MS analysis; assay type: ADME, organism-based; settings: in vivo, po
# [17] = Solubility of compound at pH 2; assay type: physicochemical; settings: buffer
# [18] = Cmax in Sprague-Dawley rat at 10 mg/kg, IG measured upto 24 hrs by LC-MS analysis; assay type: ADME, organism-based; settings: in vivo, po
# [19] = Elimination half life in Sprague-Dawley rat at 10 mg/kg, IG measured upto 24 hrs by LC-MS analysis; assay type: ADME, organism-based; settings: in vivo, po, read-out: beta t1/2 (converted)
Structure (SMILES),MIC (Staphylococcus aureus [1]) [µg/mL],MIC (Staphylococcus aureus [2]) [µg/mL],MIC (Enterococcus faecalis) [µg/mL],MIC (Staphylococcus aureus [3]) [µg/mL],MIC (Staphylococcus aureus [4]) [µg/mL],further results
O=C1O[C@@H](CO)CN1c1ccc(-c2ccc(/C=N/Nc3ncccn3)nc2)c(F)c1,1,0.5,4,1,1,
CN1CCN(/N=C/c2ccc(-c3ccc(N4C[C@H](CO)OC4=O)cc3F)cn2)CC1,0.125,0.125,0.5,0.125,0.125,
CC(=O)NC[C@H]1CN(c2ccc(-c3ccc(/C=N/N4CCS(=O)(=O)CC4)nc3)c(F)c2)C(=O)O1,0.125,0.125,0.25,0.125,0.125,Ratio [5]: 64; bioavailability [6]: 3.6%; AUC(0-t) at 24 h [7]: 1290 ng·h/mL; AUC(0-t) at 24 h [8]: 469 ng·h/mL; solubility [9]: 38 µM; solubility [10]: 70.4 µM; clearance [11]: 12.9 mL/min/kg; solubility [12]: 2.38 µM; half-life [13]: 44.4 min; Vd [14]: 0.58 L/kg; Papp A→B [15]: 0.27 ×10⁻⁶ cm/s; Tmax [16]: 30 min; solubility [17]: 70.4 µM; Cmax [18]: 140 ng/mL; half-life [19]: 154 min
CC(C)S(=O)(=O)NC[C@H]1CN(c2ccc(-c3ccc(/C=N/N4CCCCC4)nc3)c(F)c2)C(=O)O1,> 64,2,> 64,4,4,
O=C1O[C@@H](CNS(=O)(=O)C2CC2)CN1c1ccc(-c2ccc(/C=N/N3CCCCC3)nc2)c(F)c1,> 16,0.25,> 16,0.25,0.25,
COC[C@H]1CN(c2ccc(-c3ccc(/C=N/N4CCCCC4)nc3)c(F)c2)C(=O)O1,,> 16,> 16,> 16,,
CCS(=O)(=O)NC[C@H]1CN(c2ccc(-c3ccc(/C=N/N4CCCCC4)nc3)c(F)c2)C(=O)O1,> 16,1,8,1,1,
NC[C@H]1CN(c2ccc(-c3ccc(/C=N/N4CCCCC4)nc3)c(F)c2)C(=O)O1,32,8,32,8,16,
O=C1O[C@@H](CO)CN1c1ccc(-c2ccc(/C=N/N3CCSCC3)nc2)c(F)c1,2,1,8,2,1,
NC(=S)N/N=C/c1ccc(-c2ccc(N3C[C@H](CO)OC3=O)cc2F)cn1,0.25,0.125,1,0.125,0.125,
O=C1O[C@@H](CO)CN1c1ccc(-c2ccc(/C=N/NC3=NCCN3)nc2)c(F)c1,0.5,0.25,2,0.5,0.5,
O=C1O[C@@H](CO)CN1c1ccc(-c2ccc(/C=N/Nc3ccncn3)nc2)c(F)c1,1,1,64,1,1,
O=C1O[C@@H](CO)CN1c1ccc(-c2ccc(/C=N/Nc3ccc(Cl)cn3)nc2)c(F)c1,0.5,0.5,8,0.5,0.5,
CS(=O)(=O)NC[C@H]1CN(c2ccc(-c3ccc(/C=N/N4CCCCC4)nc3)c(F)c2)C(=O)O1,> 16,0.125,4,0.06,0.125,
Cc1cc(Br)cc(C(=O)N2CCN(/N=C/c3ccc(-c4ccc(N5C[C@H](CO)OC5=O)cc4F)cn3)CC2)c1,0.25,0.125,4,0.25,0.25,
O=C1O[C@@H](CF)CN1c1ccc(-c2ccc(/C=N/N3CCCCC3)nc2)c(F)c1,0.5,0.25,> 16,0.25,0.5,
CS(=O)(=O)N1CCN(/N=C/c2ccc(-c3ccc(N4C[C@H](CO)OC4=O)cc3F)cn2)CC1,0.125,0.125,1,0.25,0.25,
Cc1cccc(N/N=C/c2ccc(-c3ccc(N4C[C@H](CO)OC4=O)cc3F)cn2)n1,0.5,0.25,1,0.5,0.5,
CC(C)(C)C(=O)NC[C@H]1CN(c2ccc(-c3ccc(/C=N/N4CCCCC4)nc3)c(F)c2)C(=O)O1,> 16,4,> 16,4,4,
O=C1O[C@@H](CO)CN1c1ccc(-c2ccc(/C=N/Nc3ccc(Cl)nn3)nc2)c(F)c1,1,0.5,2,0.5,0.5,
O=C1O[C@@H](CO)CN1c1ccc(-c2ccc(/C=N/Nc3ccc(Cl)cc3)nc2)c(F)c1,0.5,0.25,32,0.5,0.5,
N=C(N)N/N=C/c1ccc(-c2ccc(N3C[C@H](CO)OC3=O)cc2F)cn1,1,0.5,2,1,1,
CS(=O)(=O)OC[C@H]1CN(c2ccc(-c3ccc(/C=N/N4CCCCC4)nc3)c(F)c2)C(=O)O1,> 16,0.008,1,0.015,0.008,
